Measured values from patent US20150133390A1, “Identification of New Therapeutic Uses for Known Therapeutic Agents” (The Board of Trustees of the Leland Stanford Junior …, priority 2012, published 2015).
Entries after “also recorded” stand apart in the source; their conditions may differ.

Tests used:
[1] = tested on: INPP5D; details: van Leuven et al., 2010; cited from earlier work
[2] = tested on: FVB donor hearts implanted into C57BL/6 WT mice (cardiac allograft); assay: Graft survival in murine heterotopic cardiac transplant model of acute rejection; type: in vivo, mouse; details: for allograft survival compared to untreated AR / Median survival: FVB-to-C57BL/6 cardiac transplant; for allograft survival compared to untreated AR: 6 pairs per group; for Median survival: atorvastatin 75 and dasatinib 25 mg/kg/day oral gavage, cyclosporine 20 mg/kg/day i.p., followed to POD 30, untreated AR 10 days
Experimental: (§1) FVB donor hearts were implanted into the abdomen of C57BL/6 WT mice representing a complete MHC mismatch, as described previously. […] Animal activity, body weight and graft viability (abdominal palpation) were assessed daily.
(§2) Before oral gavages of Atorvastatin and Dasatinib, aliquots were mixed thoroughly. Unused formulations were discarded. Treatment started the day prior to transplantation and lasted until the day before sacrifice at post operation day 7 by exsanguination. Grafts were harvested and divided into three equal parts for downstream analyses.
Graft viability (abdominal palpation) were assessed daily for these animals until post operation day 30.

[3] = tested on: CRM genes; assay: Transcriptional analysis of mouse heart allografts (microarray with IPA pathway analysis, Q-PCR of CRM genes); type: in vivo; details: treatment group against untreated AR group
Experimental: We performed functional pathway analysis using Pathway-Express (PE). We used meta effect-size as fold change in PE to identify significant pathways. We used FDR<0.1 as a threshold for identifying significant pathways. We performed network analysis using IPA with option to only include “direct relationship” in order to avoid spurious connections due to “indirect relations”.
QRT-PCR for the CIRM module genes in mouse allografts was performed using a high-throughput RT-PCR instrument (BioMark; Fluidigm, San Francisco, Calif.). […] Data was analyzed using the BioMark RT-PCR Analysis Software Version 2.0. Using the delta Ct method, gene expression in each sample was calculated relative to the expression in a universal RNA sample (human universal RNA, Stratagene, CA). […]
For whole mouse genome expression analysis, Agilent Whole Mouse Genome 4×44K 60mer oligonucleotide arrays (G2519F, Agilent Technologies, Palo Alto, Calif.) were used. […] After purification, using the RNeasy mini kit (Qiagen), cRNA yield and Cy incorporation efficiency (specific activity) into the cRNA were determined using a NanoDrop Spectrophotometer (NanoDrop Technologies). cRNAs showing a yield >825 ng and a specific activity of 8-20 pmol/μg were selected for further processing. […]

[4] = tested on: graft infiltrating cells in cardiac allograft; assay: Graft histology / immunohistochemistry of infiltrating cells at POD 7; type: in vivo, mouse; details: for number of infiltrating cells (immunohistochemistry): POD 7, compared to untreated AR
Experimental: as §1, §2
One third of the explanted allograft heart (POD7) was immediately fixed in […] buffered formalin, embedded in paraffin and subsequently stained with hematoxylin and eosin for histological assessment of tissue according to standard protocols. Pictures of the graft tissue were taken at 10× magnification using a Nikon E600 light microscope (Nikon Instruments Inc., Melville, N.Y.) and Spot V4.6 imaging software (Spot Imaging, Sterling Heights, Mich.).

[5] = tested on: infiltrating cell subsets in cardiac allografts; assay: Flow cytometry count of infiltrating cell subsets in cardiac allografts; type: in vivo, mouse; details: for number of infiltrating B220+ B cells compared to cyclosporine: POD 7, compared to cyclosporine group; for number of CD45+ infiltrating cells / number of infiltrating B220+ B cells / number of infiltrating CD4+ T cells / number of infiltrating CD8+ T cells / number of infiltrating CD11c+ dendritic cells / number of infiltrating F4/80+ macrophages / number of infiltrating NK1.1+ natural killer cells: POD 7, compared to untreated AR
Experimental: as §1, §2
Fluorescein isothiocyanate (FITC), phycoerythin (PE), or allophycocyanin-conjugated mAbs specific for mouse CD4 (GK1.5), CD8a (53-6.7), F4/80 (BM8), B220 (RA3-6B2), Gr1 (RB6-8C5), CD11c (N418), NK1.1 (PK136), CD45 (30-F11), and their isotype controls were purchased from BD Biosciences (San Jose, Calif.), eBioscience (San Diego, Calif.), or BioLegend (San Diego, Calif.). Immediately after graft explantation at day 7 post transplantation, one third of the cardiac allograft was homogenized in RPMI 1640 media with 2 mg/mL Collagenase D (Worthington Bio) and 10% FCS for 2 h at RT. Cells were first incubated with normal hamster serum, normal mouse serum (Jackson ImmunoResearch), and 5 μg/ml anti-CD16/32 mAb (2.4G2; BD Bioscience), then stained with FITC-, PE-, and APC-conjugated mAbs for 30 min at 4° C. To exclude the dead cells, 7-Amino-Actinomycin D (BD Bioscience) was added and incubated for 10 minutes before analysis. Expression of markers was determined by FACS Calibur (BD Bioscience) and FlowJo software (Tree Star).

Structure (SMILES) | reduction of expression of INPP5D [1] | allograft survival compared to untreated AR [2] | Median survival [2] | pathways affected (IPA pathway analysis of down-regulated genes) [3] | number of infiltrating cells (immunohistochemistry) [4] | number of infiltrating B220+ B cells compared to cyclosporine [5] | number of CD45+ infiltrating cells [5] | number of infiltrating B220+ B cells [5] | number of infiltrating CD4+ T cells [5] | number of infiltrating CD8+ T cells [5] | number of infiltrating CD11c+ dendritic cells [5] | number of infiltrating F4/80+ macrophages [5] | number of infiltrating NK1.1+ natural killer cells [5] | hazard ratio for graft survival ([2]; Cox-proportional hazard analysis, treated compared to untreated AR) | number of infiltrating cells (immunohistochemistry) relative to cyclosporine ([4]; POD 7, compared to treatment with cyclosporine (p>0.05))
COc1c(C)c2c(c(O)c1C/C=C(\C)CCC(=O)OCCN1CCOCC1)C(=O)OC2 [Mycophenolate mofetil] | more than 2 fold |  |  |  |  |  |  |  |  |  |  |  |  |  | 
CC(C)c1c(C(=O)Nc2ccccc2)c(-c2ccccc2)c(-c2ccc(F)cc2)n1CC[C@@H](O)C[C@@H](O)CC(=O)O [atorvastatin] |  | significantly extended allograft survival | 17 days | monocyte- and macrophage-related pathways | significantly reduced; also recorded: fewer infiltrating cells | reduced | significantly reduced | significantly reduced | reduced | reduced | significantly reduced | significantly reduced | significantly reduced |  | 
Cc1nc(Nc2ncc(C(=O)Nc3c(C)cccc3Cl)s2)cc(N2CCN(CCO)CC2)n1 [dasatinib] |  | significantly extended allograft survival | 24.5 days | cell cycle-related pathways | significantly reduced; also recorded: fewer infiltrating cells | reduced | significantly reduced | significantly reduced | reduced | reduced | significantly reduced | significantly reduced | significantly reduced | 66.26 | equivalent
